In US9399646B2 (Genentech, Inc., priority 2010, dated 2016):

Key:
MCF-7 cells = assay: Breast cancer cell viability assay (CellTiter-Glo, 5 days); type: cell-based; settings: 5 days' compound exposure; for IC50: Homo sapiens, MCF7, 120 h
Method in brief: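 Eleven-point semilog compound series, final 0.3-0.000003 μM, added to overnight-adhered MCF-7 cells (320/well; RPMI, 10% FBS, 20 mM HEPES) for 5 days. Viability read by CellTiter-Glo luminescence, background from medium without cells subtracted, expressed relative to untreated cells.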

ER-α in MCF-7 cells = molecular target: T1, ER-α in MCF-7 cells (Homo sapiens, UniProt P03372); assay: Breast cancer cell ER-α in cell western assay (SP1); type: cell-based; design: endogenous in cells; host or cells: MCF-7; settings: 4 or 24 hr post compound addition; for Emax: MCF7, SP1 antibody, read-out: ER-α In Cell Western Assay (SP1) Max Response; for DC50: SP1 antibody, read-out: ER-α In Cell Western Assay (SP1) IC50
T1 sequence (P03372 1-595): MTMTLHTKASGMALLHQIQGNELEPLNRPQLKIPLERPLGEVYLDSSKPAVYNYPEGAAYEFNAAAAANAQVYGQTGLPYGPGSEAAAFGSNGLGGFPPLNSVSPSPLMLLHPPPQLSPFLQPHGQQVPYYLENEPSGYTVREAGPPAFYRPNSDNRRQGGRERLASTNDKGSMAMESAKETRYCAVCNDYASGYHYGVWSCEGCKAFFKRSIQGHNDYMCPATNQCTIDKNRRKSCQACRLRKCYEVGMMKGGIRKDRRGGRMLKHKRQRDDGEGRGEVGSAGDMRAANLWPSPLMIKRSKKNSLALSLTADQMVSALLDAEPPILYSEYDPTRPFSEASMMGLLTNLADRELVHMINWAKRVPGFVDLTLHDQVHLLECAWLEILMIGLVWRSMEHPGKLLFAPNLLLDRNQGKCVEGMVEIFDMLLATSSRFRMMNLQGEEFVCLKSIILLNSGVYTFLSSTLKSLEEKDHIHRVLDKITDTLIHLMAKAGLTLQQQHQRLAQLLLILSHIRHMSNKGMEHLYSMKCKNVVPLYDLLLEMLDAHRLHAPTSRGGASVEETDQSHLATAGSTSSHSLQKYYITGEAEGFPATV
Method in brief: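 Percent remaining ER: SP1 immunofluorescence normalized to DRAQ5 nuclear stain, compared with untreated controls. Treatment lasted 4 or 24 hr across 0.3–0.000003 μM final in MCF-7.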

With CC/C(=C(/c1ccc(/C=C/C(=O)O)cc1)c1ccc2[nH]ncc2c1)c1ccc(Oc2ccccc2)c(F)c1 [Compound 295, (E)-3-(4-((E)-2-(3-Fluoro-4-phenoxyphenyl)-1-(1H-indazol-5-yl)but-1-en-1-yl)phenyl)acrylic acid] the “MCF7 Viability Assay Max Response” value (MCF-7 cells) was “++ (++ = a single % value ≧ 40%)”, the IC50 (MCF-7 cells) was at most 0.1 µM and the Emax (ER-α in MCF-7 cells) was at least 40%. The DC50 (ER-α in MCF-7 cells) was at most 0.1 µM.

With CC/C(=C(/c1ccc(/C=C/C(=O)O)cc1)c1ccc2c(c1)CCC(=O)N2)c1ccccc1 [Compound 100, (E)-3-(4-((E)-1-(2-Oxo-1,2,3,4-tetrahydroquinolin-6-yl)-2-phenylbut-1-en-1-yl)phenyl)acrylic acid] the “MCF7 Viability Assay Max Response” value (MCF-7 cells) was “++ (++ = a single % value ≧ 40%)”, the IC50 (MCF-7 cells) was over 0.1 µM and the Emax (ER-α in MCF-7 cells) was at least 40%. For the same compound, the DC50 (ER-α in MCF-7 cells) was over 0.1 µM.

For CC/C(=C(/c1ccc(/C=C/C(=O)O)cc1)c1ccc2nccnc2c1)c1ccccc1 [Compound 124, (E)-3-(4-((E)-2-Phenyl-1-(quinoxalin-6-yl)but-1-en-1-yl)phenyl)acrylic acid], the “MCF7 Viability Assay Max Response” value (MCF-7 cells) was “+ (+ = a single % value < 40%)”, the IC50 (MCF-7 cells) was over 0.1 µM and the Emax (ER-α in MCF-7 cells) was at least 40%. For the same compound, the DC50 (ER-α in MCF-7 cells) was over 0.1 µM.

CC/C(=C(/c1ccc(/C=C/C(=O)O)cc1)c1ccc2[nH]ncc2c1)c1ccc(Oc2ccccc2)cc1 [Compound 263, (E)-3-(4-((E)-1-(1H-Indazol-5-yl)-2-(4-phenoxyphenyl)but-1-en-1-yl)phenyl)acrylic acid] was tested, and the “MCF7 Viability Assay Max Response” value (MCF-7 cells) was “++ (++ = a single % value ≧ 40%)”, the IC50 (MCF-7 cells) was at most 0.1 µM and the Emax (ER-α in MCF-7 cells) was at least 40%. For the same compound, the DC50 (ER-α in MCF-7 cells) was at most 0.1 µM.

With CC/C(=C(/c1ccc(/C=C/S(N)(=O)=O)cc1)c1ccc2[nH]ncc2c1)c1ccccc1 [Compound 452, (E)-2-(4-((E)-1-(1H-Indazol-5-yl)-2-phenylbut-1-en-1-yl)phenyl)ethenesulfonamide] the “MCF7 Viability Assay Max Response” value (MCF-7 cells) was “++ (++ = a single % value ≧ 40%)”, the IC50 (MCF-7 cells) was at most 0.1 µM and the Emax (ER-α in MCF-7 cells) was at least 40%. It also gave a DC50 (ER-α in MCF-7 cells) of at most 0.1 µM.

In the case of CC/C(=C(/c1ccc(/C=C/C(=O)O)cc1)c1coc2c(O)cccc12)c1ccccc1 [Compound 451, (E)-3-(4-((E)-1-(7-Hydroxybenzofuran-3-yl)-2-phenylbut-1-en-1-yl)phenyl)acrylic acid], the “MCF7 Viability Assay Max Response” value (MCF-7 cells) is reported as “++ (++ = a single % value ≧ 40%)”, the IC50 (MCF-7 cells) is reported as at most 0.1 µM and the Emax (ER-α in MCF-7 cells) is reported as at least 40%. For the same compound, the DC50 (ER-α in MCF-7 cells) was at most 0.1 µM.

Cc1cscc1/C(=C(\c1ccc(/C=C/c2nn[nH]n2)cc1)c1ccc2scnc2c1)C1CCC1 [Compound 448, 5-((E)-1-(4-((E)-2-(2H-Tetrazol-5-yl)vinyl)phenyl)-2-cyclobutyl-2-(4-methylthiophen-3-yl)vinyl)benzo[d]thiazole] was tested, and the “MCF7 Viability Assay Max Response” value (MCF-7 cells) was “++ (++ = a single % value ≧ 40%)”, the IC50 (MCF-7 cells) was at most 0.1 µM and the Emax (ER-α in MCF-7 cells) was at least 40%. For the same compound, the DC50 (ER-α in MCF-7 cells) was at most 0.1 µM.

For CC/C(=C(/c1ccc2c(c1)CC(C(=O)O)C2)c1ccc2[nH]ncc2c1)c1ccccc1 (stereo not shown) [Compound 192, (E)-5-(1-(1H-Indazol-5-yl)-2-phenylbut-1-en-1-yl)-2,3-dihydro-1H-indene-2-carboxylic acid], the “MCF7 Viability Assay Max Response” value (MCF-7 cells) was “++ (++ = a single % value ≧ 40%)”, the IC50 (MCF-7 cells) was over 0.1 µM and the Emax (ER-α in MCF-7 cells) was at least 40%. The DC50 (ER-α in MCF-7 cells) was over 0.1 µM.

CC/C(=C(/c1ccc(/C=C/C(=O)O)cc1)c1ccc2[nH]ncc2c1)c1ccc(Oc2ncccn2)cc1 [Compound 290, (E)-3-(4-((E)-1-(1H-Indazol-5-yl)-2-(4-(pyrimidin-2-yloxy)phenyl)but-1-en-1-yl)phenyl)acrylic acid] was tested, and the “MCF7 Viability Assay Max Response” value (MCF-7 cells) was “++ (++ = a single % value ≧ 40%)”, the IC50 (MCF-7 cells) was at most 0.1 µM and the Emax (ER-α in MCF-7 cells) was at least 40%. The DC50 (ER-α in MCF-7 cells) was at most 0.1 µM.

For CC/C(=C(/c1ccc(/C=C/C(=O)O)cc1)c1ccc2[nH]ncc2c1)c1cccc(Oc2cccnc2)c1 [Compound 365, (E)-3-(4-((E)-1-(1H-Indazol-5-yl)-2-(3-(pyridin-3-yloxy)phenyl)but-1-en-1-yl)phenyl)acrylic acid], the “MCF7 Viability Assay Max Response” value (MCF-7 cells) was “++ (++ = a single % value ≧ 40%)”, the IC50 (MCF-7 cells) was at most 0.1 µM and the Emax (ER-α in MCF-7 cells) was at least 40%. The DC50 (ER-α in MCF-7 cells) was at most 0.1 µM.

For CC/C(=C(/c1ccc(/C=C/C(=O)O)cc1)c1ccc2[nH]ncc2c1)c1ccc(Oc2ccccc2)cc1Cl [Compound 291, (E)-3-(4-((E)-2-(2-Chloro-4-phenoxyphenyl)-1-(1H-indazol-5-yl)but-1-en-1-yl)phenyl)acrylic acid], the “MCF7 Viability Assay Max Response” value (MCF-7 cells) was “++ (++ = a single % value ≧ 40%)”, the IC50 (MCF-7 cells) was at most 0.1 µM and the Emax (ER-α in MCF-7 cells) was at least 40%. For the same compound, the DC50 (ER-α in MCF-7 cells) was at most 0.1 µM.

For CC/C(=C(/c1ccc(/C=C/C(=O)O)cc1)c1ccc2[nH]ncc2c1)c1ccncc1C [Compound 226, (E)-3-(4-((E)-1-(1H-Indazol-5-yl)-2-(3-methylpyridin-4-yl)but-1-en-1-yl)phenyl)acrylic acid], the “MCF7 Viability Assay Max Response” value (MCF-7 cells) was “++ (++ = a single % value ≧ 40%)”, the IC50 (MCF-7 cells) was at most 0.1 µM and the Emax (ER-α in MCF-7 cells) was at least 40%.

CCOC(=O)n1ncc2cc(/C(=C(\CC)c3ccc(F)cc3Cl)c3ccc(/C=C/C(=O)O)cc3)ccc21 [Compound 406, (E)-3-(4-((E)-2-(2-Chloro-4-fluorophenyl)-1-(1-(ethoxycarbonyl)-1H-indazol-5-yl)but-1-en-1-yl)phenyl)acrylic acid] was tested, and the “MCF7 Viability Assay Max Response” value (MCF-7 cells) was “++ (++ = a single % value ≧ 40%)”, the IC50 (MCF-7 cells) was at most 0.1 µM and the Emax (ER-α in MCF-7 cells) was at least 40%. For the same compound, the DC50 (ER-α in MCF-7 cells) was at most 0.1 µM.

CC/C(=C(/c1ccc(/C=C/C(=O)O)cc1)c1ccc2[nH]ncc2c1)c1ccc(F)c(Oc2ccccc2)c1 [Compound 294, (E)-3-(4-((E)-2-(4-Fluoro-3-phenoxyphenyl)-1-(1H-indazol-5-yl)but-1-en-1-yl)phenyl)acrylic acid] was tested, and the “MCF7 Viability Assay Max Response” value (MCF-7 cells) was “++ (++ = a single % value ≧ 40%)”, the IC50 (MCF-7 cells) was at most 0.1 µM and the Emax (ER-α in MCF-7 cells) was at least 40%. For the same compound, the DC50 (ER-α in MCF-7 cells) was at most 0.1 µM.

For CCCCCOc1ccc(/C(CC)=C(\c2ccc(/C=C/C(=O)O)cc2)c2ccc3[nH]ncc3c2)cc1 [Compound 356, (E)-3-(4-((E)-1-(1H-Indazol-5-yl)-2-(4-(pentyloxy)phenyl)but-1-en-1-yl)phenyl)acrylic acid], the “MCF7 Viability Assay Max Response” value (MCF-7 cells) was “++ (++ = a single % value ≧ 40%)”, the IC50 (MCF-7 cells) was over 0.1 µM and the Emax (ER-α in MCF-7 cells) was at least 40%. It also gave a DC50 (ER-α in MCF-7 cells) of at most 0.1 µM.

With CC/C(=C(/c1ccc(/C=C/C(=O)O)cc1)c1ccc2[nH]ncc2c1)c1ccc([S+]([O-])C(F)(F)F)cc1 (stereo not shown) [Compound 302, (E)-3-(4-((E)-1-(1H-Indazol-5-yl)-2-(4-((trifluoromethyl)sulfinyl)phenyl)but-1-en-1-yl)phenyl)acrylic acid] the “MCF7 Viability Assay Max Response” value (MCF-7 cells) was “++ (++ = a single % value ≧ 40%)”, the IC50 (MCF-7 cells) was at most 0.1 µM and the Emax (ER-α in MCF-7 cells) was at least 40%. The DC50 (ER-α in MCF-7 cells) was at most 0.1 µM.

In the case of CC/C(=C(/c1ccc(/C=C/C(=O)O)cc1)c1ccc2[nH]c(=O)sc2c1)c1ccccc1 [Compound 75, (E)-3-(4-((E)-1-(2-Oxo-2,3-dihydrobenzo[d]thiazol-6-yl)-2-phenylbut-1-en-1-yl)phenyl)acrylic acid], the “MCF7 Viability Assay Max Response” value (MCF-7 cells) is reported as “++ (++ = a single % value ≧ 40%)”, the IC50 (MCF-7 cells) is reported as over 0.1 µM and the Emax (ER-α in MCF-7 cells) is reported as at least 40%.

In the case of CCCCCOc1cccc(/C(CC)=C(\c2ccc(/C=C/C(=O)O)cc2)c2ccc3[nH]ncc3c2)c1 [Compound 349, (E)-3-(4-((E)-1-(1H-Indazol-5-yl)-2-(3-(pentyloxy)phenyl)but-1-en-1-yl)phenyl)acrylic acid], the “MCF7 Viability Assay Max Response” value (MCF-7 cells) is reported as “++ (++ = a single % value ≧ 40%)”, the IC50 (MCF-7 cells) is reported as at most 0.1 µM and the Emax (ER-α in MCF-7 cells) is reported as at least 40%. The DC50 (ER-α in MCF-7 cells) was at most 0.1 µM.
